Assay results from US20260325533A1, “CDK INHIBITOR COMPOUNDS” (ALEKSIA THERAPEUTICS, INC., priority 2023, published 2026).
pIC50: −log10 of the molar value. Where two headings read alike, the source gives them in different places.

Tests used:
Assay type in all cases: biochemical
CDK2/CCNE1 = CDK2/CCNE1 (Homo sapiens, UniProt P24941); test: CDK2 homogeneous time-resolved fluorescence (HTRF) kinase assay; conditions: CDK2/CCNE
How it was run: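 CDK2/CCNE1 (3 nM) preincubated 20 min at 23 °C with compound, then reacted 60 min at 23 °C with 1 mM ATP and 50 nM ULight-4E-BP1 (Thr37/46) peptide. Stopped with EDTA, phospho-peptide detected by Eu-anti-phospho antibody (665 nm or 665/615 ratio). IC50 from 11-point half-log titrations typically starting at 10 μM.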

CDK6/CCND1 = CDK6/CCND1 (Homo sapiens, UniProt Q00534); test: CDK6 homogeneous time-resolved fluorescence (HTRF) kinase assay; conditions: CDK6/CCND
Sequence of CDK6/CCND1 (Q00534 whole entry): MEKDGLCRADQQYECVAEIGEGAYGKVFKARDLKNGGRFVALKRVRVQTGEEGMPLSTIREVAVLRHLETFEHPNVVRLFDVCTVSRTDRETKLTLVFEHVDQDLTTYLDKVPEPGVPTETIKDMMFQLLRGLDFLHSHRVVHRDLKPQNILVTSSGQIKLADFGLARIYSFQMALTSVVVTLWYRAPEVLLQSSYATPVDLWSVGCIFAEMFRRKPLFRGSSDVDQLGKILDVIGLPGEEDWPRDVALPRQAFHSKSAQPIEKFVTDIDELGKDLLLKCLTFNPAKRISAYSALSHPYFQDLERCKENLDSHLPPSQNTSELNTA
Sequence of CDK6/CCND1 (P24385 whole entry partner): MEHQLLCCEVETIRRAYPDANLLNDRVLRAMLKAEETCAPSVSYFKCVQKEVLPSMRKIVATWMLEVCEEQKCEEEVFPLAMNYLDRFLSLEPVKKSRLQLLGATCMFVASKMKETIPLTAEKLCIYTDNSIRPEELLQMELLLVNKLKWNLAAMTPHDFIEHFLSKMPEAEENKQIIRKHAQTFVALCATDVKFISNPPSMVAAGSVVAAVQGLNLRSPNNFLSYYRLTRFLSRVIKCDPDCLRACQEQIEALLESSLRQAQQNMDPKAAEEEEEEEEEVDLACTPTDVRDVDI
How it was run: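 1 nM enzyme, 1 mM ATP, 50 nM ULight-4E-BP1 (Thr37/46) peptide, 1% DMSO; 20 min compound preincubation, 60 min reaction, 23 °C. EDTA stop, 2 nM Eu-anti-phospho-4E-BP1 antibody 60 min. TR-FRET 665 nm (or 665/615 ratio); IC50 from 11-point half-log titration, top 10 μM.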

CDK4/CCND3 = CDK4/CCND3 (Homo sapiens, UniProt P11802); test: CDK4 homogeneous time-resolved fluorescence (HTRF) kinase assay; conditions: CDK4/CCND
Sequence of CDK4/CCND3 (P11802 whole entry): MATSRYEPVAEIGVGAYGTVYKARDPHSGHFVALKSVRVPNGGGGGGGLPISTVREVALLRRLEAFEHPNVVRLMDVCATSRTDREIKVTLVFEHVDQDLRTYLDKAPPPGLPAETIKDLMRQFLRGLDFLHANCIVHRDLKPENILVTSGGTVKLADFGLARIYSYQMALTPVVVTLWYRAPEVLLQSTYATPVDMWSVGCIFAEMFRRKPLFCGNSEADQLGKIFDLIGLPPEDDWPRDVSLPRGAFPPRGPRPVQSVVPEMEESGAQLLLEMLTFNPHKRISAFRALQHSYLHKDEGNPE
Sequence of CDK4/CCND3 (P30281 whole entry partner): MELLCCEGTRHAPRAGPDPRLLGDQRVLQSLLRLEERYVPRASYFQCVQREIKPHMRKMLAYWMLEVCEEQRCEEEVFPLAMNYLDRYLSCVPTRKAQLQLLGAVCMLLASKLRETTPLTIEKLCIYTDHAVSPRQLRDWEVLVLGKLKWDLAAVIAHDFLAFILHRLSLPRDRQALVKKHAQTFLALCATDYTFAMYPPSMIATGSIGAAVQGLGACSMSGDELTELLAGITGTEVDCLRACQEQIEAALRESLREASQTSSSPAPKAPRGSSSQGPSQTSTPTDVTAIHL
How it was run: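 Inhibition of CDK4/CCND3 (1.5 nM) was measured at high ATP (1 mM) using 50 nM ULight-labelled 4E-BP1 Thr37/46 peptide; detection used 2 nM europium anti-phospho antibody after EDTA quench. IC50 values came from 11-point half-log titrations typically starting at 10 μM.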

CDK1/CCNB1 = CDK1/CCNB1 (Homo sapiens, UniProt P06493); test: CDK1 homogeneous time-resolved fluorescence (HTRF) kinase assay; conditions: CDK1/CCNB
Sequence of CDK1/CCNB1 (P06493 whole entry): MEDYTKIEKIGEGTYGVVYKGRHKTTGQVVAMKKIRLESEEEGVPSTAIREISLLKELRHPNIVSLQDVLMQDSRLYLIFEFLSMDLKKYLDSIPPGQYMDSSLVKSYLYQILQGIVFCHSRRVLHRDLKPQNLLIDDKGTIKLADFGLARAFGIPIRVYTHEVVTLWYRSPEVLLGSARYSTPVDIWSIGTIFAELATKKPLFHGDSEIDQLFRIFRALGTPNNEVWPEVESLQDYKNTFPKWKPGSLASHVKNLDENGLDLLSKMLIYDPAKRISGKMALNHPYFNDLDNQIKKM
Sequence of CDK1/CCNB1 (P14635 whole entry partner): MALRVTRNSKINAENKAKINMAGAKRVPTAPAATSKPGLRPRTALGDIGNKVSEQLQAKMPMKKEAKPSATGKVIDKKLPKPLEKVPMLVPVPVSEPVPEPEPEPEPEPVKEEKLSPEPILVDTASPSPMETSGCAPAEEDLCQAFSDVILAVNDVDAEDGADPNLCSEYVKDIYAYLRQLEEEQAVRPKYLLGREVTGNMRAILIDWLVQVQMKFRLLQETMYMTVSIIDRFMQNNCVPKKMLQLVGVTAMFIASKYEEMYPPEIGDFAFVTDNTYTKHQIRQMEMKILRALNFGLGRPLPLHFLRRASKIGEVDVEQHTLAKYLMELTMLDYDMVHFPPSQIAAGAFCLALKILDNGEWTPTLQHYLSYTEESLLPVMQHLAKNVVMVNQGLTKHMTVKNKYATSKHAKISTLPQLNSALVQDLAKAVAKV
How it was run: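 Read-out: TR-FRET (Eu anti-phospho-4E-BP1 Thr37/46 antibody, 2 nM; 665 nm or 665/615 ratio) after 60 min phosphorylation of 50 nM ULight-peptide by 0.5 nM CDK1/CCNB1 at 1 mM ATP, 23 °C. Compound preincubated 20 min with enzyme; 1% DMSO.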

[1] = x = IC50 25-250 nM, read-out: CDK2/CCNE IC50 (25-250 nM)
[2] = x = IC50 >250 nM, read-out: CDK6/CCND IC50 (>250 nM column)
[3] = x = IC50 >250 nM, read-out: CDK4/CCND IC50 (>250 nM column)
[4] = x = IC50 >250 nM, read-out: CDK1/CCNB IC50 (>250 nM column)
[5] = x = IC50 <25 nM, read-out: CDK2/CCNE IC50 (<25 nM)
[6] = x = IC50 25-250 nM, read-out: CDK4/CCND IC50 (25-250 nM)

| Compound | pIC50 (CDK2/CCNE1; [1]) | pIC50 (CDK6/CCND1; [2]) | pIC50 (CDK4/CCND3; [3]) | pIC50 (CDK1/CCNB1; [4]) | pIC50 (CDK2/CCNE1; [5]) | pIC50 (CDK4/CCND3; [6]) | pIC50 (CDK6/CCND1; x = IC50 25-250 nM, read-out: CDK6/CCND IC50 (25-250 nM)) | pIC50 (CDK1/CCNB1; x = IC50 25-250 nM, read-out: CDK1/CCNB IC50 (25-250 nM)) |
| --- | --- | --- | --- | --- | --- | --- | --- | --- |
| CS(=O)(=O)c1ccc(Nc2cc3c(C#Cc4cnc(N)cn4)nccc3cn2)cc1 [Ex 622, 5-((5-aminopyrazin-2-yl)ethynyl)-N-(4-(methylsulfonyl)phenyl)-2,6-naphthyridin-3-amine] | 6.60 to 7.60 | < 6.60 | < 6.60 | < 6.60 |  |  |  |  |
| CN1Cc2cc(-c3nccc4cnc(Nc5ccc(S(C)(=O)=O)cc5)cc34)ccc2C1=O [Ex 624, 2-methyl-5-(7-((4-(methylsulfonyl)phenyl)amino)-2,6-naphthyridin-1-yl)isoindolin-1-one] | 6.60 to 7.60 | < 6.60 | < 6.60 | < 6.60 |  |  |  |  |
| CC(=O)Nc1ccc(C#Cc2nccc3cnc(Nc4ccc(S(C)(=O)=O)cc4)cc23)cc1 [Ex 631, N-(4-((7-((4-(methylsulfonyl)phenyl)amino)-2,6-naphthyridin-1-yl)ethynyl)phenyl)acetamide] |  | < 6.60 | < 6.60 | < 6.60 | > 7.60 |  |  |  |
| CNC(=O)c1ccc(C#Cc2nccc3cnc(Nc4ccc(S(C)(=O)=O)cc4)cc23)cc1 [Ex 634, N-methyl-4-((7-((4-(methylsulfonyl)phenyl)amino)-2,6-naphthyridin-1-yl)ethynyl)benzamide] |  | < 6.60 | < 6.60 | < 6.60 | > 7.60 |  |  |  |
| CS(=O)(=O)c1ccc(Nc2cc3c(C#Cc4cnn(C5CC5)c4)nccc3cn2)cc1 [Ex 635, 5-((1-cyclopropyl-1H-pyrazol-4-yl)ethynyl)-N-(4-(methylsulfonyl)phenyl)-2,6-naphthyridin-3-amine] | 6.60 to 7.60 | < 6.60 | < 6.60 | < 6.60 |  |  |  |  |
| Cc1c(C#N)ccc(C#Cc2nccc3cnc(Nc4ccc(S(C)(=O)=O)cc4)cc23)c1C [Ex 643, 2,3-dimethyl-4-((7-((4-(methylsulfonyl)phenyl)amino)-2,6-naphthyridin-1-yl)ethynyl)benzonitrile] | 6.60 to 7.60 | < 6.60 | < 6.60 | < 6.60 |  |  |  |  |
| CS(=O)(=O)c1ccc(Nc2cc3c(C#Cc4ccc(C#N)cc4C(F)(F)F)nccc3cn2)cc1 [Ex 647, 4-((7-((4-(methylsulfonyl)phenyl)amino)-2,6-naphthyridin-1-yl)ethynyl)-3-(trifluoromethyl)benzonitrile] |  | < 6.60 | < 6.60 | < 6.60 | > 7.60 |  |  |  |
| CS(=O)(=O)c1ccc(Nc2cc3c(C#Cc4ccc5nc[nH]c5c4)nccc3cn2)cc1 [Ex 648, 5-((1H-benzo[d]imidazol-6-yl)ethynyl)-N-(4-(methylsulfonyl)phenyl)-2,6-naphthyridin-3-amine] |  | < 6.60 | < 6.60 | < 6.60 | > 7.60 |  |  |  |
| CS(=O)(=O)c1ccc(Nc2cc3c(-c4ccc5c(c4)CNC(=O)C5)nccc3cn2)cc1 [Ex 649, 7-(7-((4-(methylsulfonyl)phenyl)amino)-2,6-naphthyridin-1-yl)-1,4-dihydroisoquinolin-3(2H)-one] | 6.60 to 7.60 | < 6.60 | < 6.60 | < 6.60 |  |  |  |  |

Now from value to molecule:

| pIC50 (CDK2/CCNE1; [1]) | pIC50 (CDK6/CCND1; [2]) | pIC50 (CDK4/CCND3; [3]) | pIC50 (CDK1/CCNB1; [4]) | pIC50 (CDK2/CCNE1; [5]) | pIC50 (CDK4/CCND3; [6]) | pIC50 (CDK6/CCND1; x = IC50 25-250 nM, read-out: CDK6/CCND IC50 (25-250 nM)) | pIC50 (CDK1/CCNB1; x = IC50 25-250 nM, read-out: CDK1/CCNB IC50 (25-250 nM)) | Compound |
| --- | --- | --- | --- | --- | --- | --- | --- | --- |
| 6.60 to 7.60 | < 6.60 | < 6.60 | < 6.60 |  |  |  |  | CS(=O)(=O)c1ccc(Nc2cc3c(C#Cc4cccc5cn[nH]c45)nccc3cn2)cc1 [Ex 621, 5-((1H-indazol-7-yl)ethynyl)-N-(4-(methylsulfonyl)phenyl)-2,6-naphthyridin-3-amine] |
| 6.60 to 7.60 | < 6.60 | < 6.60 | < 6.60 |  |  |  |  | CS(=O)(=O)c1ccc(Nc2cc3c(C#Cc4cccnc4)nccc3cn2)cc1 [Ex 623, N-(4-(methylsulfonyl)phenyl)-5-(pyridin-3-ylethynyl)-2,6-naphthyridin-3-amine] |
| 6.60 to 7.60 | < 6.60 | < 6.60 | < 6.60 |  |  |  |  | CS(=O)(=O)c1ccc(Nc2cc3c(C#Cc4ccc(O)cn4)nccc3cn2)cc1 [Ex 627, 6-((7-((4-(methylsulfonyl)phenyl)amino)-2,6-naphthyridin-1-yl)ethynyl)pyridin-3-ol] |
| 6.60 to 7.60 | < 6.60 | < 6.60 | < 6.60 |  |  |  |  | CS(=O)(=O)c1ccc(Nc2cc3c(C#Cc4cnc(N)nc4)nccc3cn2)cc1 [Ex 633, 5-((2-aminopyrimidin-5-yl)ethynyl)-N-(4-(methylsulfonyl)phenyl)-2,6-naphthyridin-3-amine] |
| 6.60 to 7.60 | < 6.60 | < 6.60 | < 6.60 |  |  |  |  | CS(=O)(=O)c1ccc(Nc2cc3c(C#Cc4ccc(OC(F)F)cc4)nccc3cn2)cc1 [Ex 636, 5-((4-(difluoromethoxy)phenyl)ethynyl)-N-(4-(methylsulfonyl)phenyl)-2,6-naphthyridin-3-amine] |
|  | < 6.60 | < 6.60 | < 6.60 | > 7.60 |  |  |  | Cn1nccc1C#Cc1nccc2cnc(Nc3ccc(S(C)(=O)=O)cc3)cc12 [Ex 637, 5-((1-methyl-1H-pyrazol-5-yl)ethynyl)-N-(4-(methylsulfonyl)phenyl)-2,6-naphthyridin-3-amine] |
|  | < 6.60 |  | < 6.60 | > 7.60 | 6.60 to 7.60 |  |  | CS(=O)(=O)c1ccc(Nc2cc3c(C#Cc4ccc5cn[nH]c5c4)nccc3cn2)cc1 [Ex 638, 5-((1H-indazol-6-yl)ethynyl)-N-(4-(methylsulfonyl)phenyl)-2,6-naphthyridin-3-amine] |
| 6.60 to 7.60 | < 6.60 | < 6.60 | < 6.60 |  |  |  |  | CS(=O)(=O)c1ccc(Nc2cc3c(-c4ccc5nn(CCO)cc5c4)nccc3cn2)cc1 [Ex 639, 2-(5-(7-((4-(methylsulfonyl)phenyl)amino)-2,6-naphthyridin-1-yl)-2H-indazol-2-yl)ethan-1-ol] |
|  |  |  |  | > 7.60 | 6.60 to 7.60 | 6.60 to 7.60 | 6.60 to 7.60 | CNC(=O)Cn1ncc2c(C)c(-c3nccc4cnc(Nc5ccc(S(C)(=O)=O)cc5)cc34)ccc21 [Ex 640, N-methyl-2-(4-methyl-5-(7-((4-(methylsulfonyl)phenyl)amino)-2,6-naphthyridin-1-yl)-1H-indazol-1-yl)acetamide] |
| 6.60 to 7.60 | < 6.60 | < 6.60 | < 6.60 |  |  |  |  | CN1Cc2cc(-c3nccc4cnc(Nc5ccc(S(C)(=O)=O)cc5)cc34)ccc2CC1=O [Ex 644, 2-methyl-7-(7-((4-(methylsulfonyl)phenyl)amino)-2,6-naphthyridin-1-yl)-1,4-dihydroisoquinolin-3(2H)-one] |
| 6.60 to 7.60 | < 6.60 | < 6.60 | < 6.60 |  |  |  |  | CS(=O)(=O)c1ccc(Nc2cc3c(C#Cc4ccc5[nH]ncc5c4)nccc3cn2)cc1 [Ex 645, 5-((1H-indazol-5-yl)ethynyl)-N-(4-(methylsulfonyl)phenyl)-2,6-naphthyridin-3-amine] |
| 6.60 to 7.60 | < 6.60 | < 6.60 | < 6.60 |  |  |  |  | COc1ccc(C#Cc2nccc3cnc(Nc4ccc(S(C)(=O)=O)cc4)cc23)cn1 [Ex 646, 5-((6-methoxypyridin-3-yl)ethynyl)-N-(4-(methylsulfonyl)phenyl)-2,6-naphthyridin-3-amine] |
| 6.60 to 7.60 | < 6.60 | < 6.60 | < 6.60 |  |  |  |  | CS(=O)(=O)c1ccc(Nc2cc3c(C#Cc4ccc(C#N)c(F)c4)nccc3cn2)cc1 [Ex 650, 2-fluoro-4-((7-((4-(methylsulfonyl)phenyl)amino)-2,6-naphthyridin-1-yl)ethynyl)benzonitrile] |
